Measured values as given in patent publication US20110237629A1, “AMINO ACID ESTER PRODRUGS AND THE USE THEREOF” (Bayer Schering Pharma Aktiengesellschaft, priority 2008, published 2011).
Where a name gives a salt, the structure may show the parent alone.

Key:
Assay type in all cases: physicochemical
[1] = Stability in buffer at various pH values
Procedure: 0.3 mg of the test substance is weighed into a 2 ml HPLC vial and 0.5 ml of acetonitrile or acetonitrile/DMSO (9:1) is added. The substance is dissolved by putting the sample vessel in an ultrasonic bath for about 10 seconds. Then 0.5 ml of the respective buffer solution is added, and the sample is again treated in the ultrasonic bath.
(Buffer) solutions employed:
pH 4: 1 liter of Millipore water is adjusted to pH 4.0 with 1 N hydrochloric acid;
pH 5: 0.096 mol of citric acid and 0.2 mol of sodium hydroxide ad 1 liter of water;
pH 7.4: 90.0 g of sodium chloride, 13.61 g of potassium dihydrogen phosphate and 83.35 g of 1 N sodium hydroxide solution are made up to 1 liter with water; this solution is then further diluted 1:10 with Millipore water.
pH 8: 0.013 mol of borax and 0.021 mol of hydrochloric acid ad 1 liter of water.
5 μl portions of the test solution are analyzed by HPLC for their content of unchanged test substance, and of basic mother substance of the formula (A) formed, every hour over a period of 24 hours at 37° C. The percentage areas of the appropriate peaks are used for quantification.
HPLC method for example 1:
(§1) Agilent 1100 with DAD (G1315B), binary pump (G1312A), autosampler (G1329A), column oven (G1316A), thermostat (G1330B); column: Kromasil 100 C18, 125 mm×4 mm, 5 μm; column temperature: 30° C.; eluent A: water+5 ml perchloric acid/liter, eluent B: acetonitrile; gradient: 0 min 90% A→2.0 min 70% A→18.0 min 70% A 20.0 min 10% A→21.0 min 10% A→23.0 min 90% A→26.0 min 90% A; flow rate: 2.0 ml/min;
HPLC method for example 3:
as §1, with “(G1314A),” for “(G1315B),”, “(G1330A);” for “(G1330B);”, “64%” for “70%”, “64% A→20.0” for “70% A 20.0”, “ml/min UV detection: 294 nm.” for “ml/min;”
HPLC method for example 11:
as §1, with “ml of” for “ml”, “64%” for “70%”, “64% A→20.0” for “70% A 20.0”, “ml/min; UV detection: 294 nm.” for “ml/min;”
HPLC method for example 14:
Agilent 1100 with DAD (G1315B), binary pump (G1312A), autosampler (G1329A), column oven (G1316A), thermostat (G1330B); column: Kromasil 100 C18, 250 mm×4 mm, 5 μm; column temperature: 30° C.; eluent A: water+5 ml of perchloric acid/liter, eluent B: acetonitrile; gradient: 0 min 90% A→7.0 min 52% A→18.0 min 52% A→20.0 min 10% A→21.0 min 10% A→23.0 min 90% A -4 26.0 min 90% A; flow rate: 2.0 ml/min; UV detection: 288 nm.
HPLC method for example 18:
Agilent 1100 with DAD (G1315A), binary pump (G1312A), autosampler (G1329A), column oven (G1316A), thermostat (G1330A); column: Kromasil 100 C18, 125 mm×4 mm, 5 μm; column temperature: 30° C.; eluent A: water+5 ml of perchloric acid/liter, eluent B: acetonitrile; gradient: 0 min 90% A→6.0 min 61% A→18.0 min 61% A→20.0 min 10% A→21.0 min 10% A→23.0 min 90% A→26.0 min 90% A; flow rate: 2.0 ml/min; UV detection: 294 nm.
The ratios of the peak areas (F) at the respective time points in relation to the peak areas at the starting time are shown in Table 3 for representative exemplary embodiments: […]

[2] = Determination of the solubility (suspension shaken 24 h at room temperature, HPLC of supernatant); conditions: thermodynamic from solid
Procedure: The test substance is suspended in water or dilute hydrochloric acid (pH 4) or in 5% strength aqueous dextrose solution. This suspension is shaken at room temperature for 24 h. After ultracentrifugation at 224 000 g for 30 min, the supernatant is diluted with DMSO and analysed by HPLC. A two-point calibration plot of the test compound in DMSO is used for quantification.
Agilent 1100 with DAD (G1315A), quat. Pump (G1311A), autosampler CTC HTS PAL, degasser (G1322A) and column thermostat (G1316A); column: Phenomenex Gemini C18, 5 μm, 50 mm×2 mm; temperature: 40° C.; eluent A: water/phosphoric acid pH 2, eluent B: acetonitrile; flow rate: 0.7 ml/min; gradient: 0-0.5 min 85% A, 15% B; ramp 0.5-3 min 10% A, 90% B; 3-3.5 min 10% A, 90% B; ramp 3.5-4 min 85% A, 15% B; 4-5 min 85% A, 15% B.
Agilent 1100 with DAD (G1315A), quat. pump (G1311A), autosampler CTC HTS PAL, degasser (G1322A) and column thermostat (G1316A); column: VDSoptilab Kromasil 100 C18, 3.5 μm, 60 mm×2.1 mm; temperature: 30° C.; eluent A: water+5 ml of perchloric acid/liter, eluent B: acetonitrile; flow rate: 0.75 ml/min; gradient: 0-0.5 min 98% A, 2% B; ramp 0.5-4.5 min 10% A, 90% B; 4.5-6 min 10% A, 90% B; ramp 6.5-6.7 min 98% A, 2% B; 6.7-7.5 min 98% A, 2% B.
The solubilities of representative exemplary embodiments in dilute hydrochloric acid (pH 4) are shown in Table1: […]

[3] = as above; conditions: 0.1 M hydrochloric acid, simulated gastric fluid, thermodynamic from solid
[4] = saline or isotonic, 5% strength aqueous dextrose solution

| Structure (SMILES) | % test substance after 4 h [F(t = 4 h) × 100/F(t = 0 h)] ([1]; pH 4, 37° C.) [%] | % test substance after 24 h [F(t = 24 h) × 100/F(t = 0 h)] ([1]; pH 4, 37° C.) [%] | % test substance after 4 h [F(t = 4 h) × 100/F(t = 0 h)] ([1]; pH 7.4, 37° C.) [%] | % test substance after 24 h [F(t = 24 h) × 100/F(t = 0 h)] ([1]; pH 7.4, 37° C.) [%] | solubility at 24 h [2, 4] [µg/mL] | further results |
| --- | --- | --- | --- | --- | --- | --- |
| N#Cc1c(N)nc(SCc2coc(-c3ccc(Cl)cc3)n2)c(C#N)c1-c1ccc(OC[C@@H](COC(=O)CN)OC(=O)CN)cc1 [Example 3, (2S)-3-{4-[2-Amino-6-({[2-(4-chlorophenyl)-1,3-oxazol-4-yl]methyl}sulphanyl)-3,5-dicyanopyridin-4-yl]phenoxy}propane-1,2-diyl bis(aminoacetate) dihydrochloride] | 99 | 99 | 93 | 67 |  |  |
| N#Cc1c(N)nc(SCc2coc(-c3ccc(Cl)cc3)n2)c(C#N)c1-c1ccc(OC[C@H](O)CO)cc1 [Example 8A, 2-Amino-6-({[2-(4-chlorophenyl)-1,3-oxazol-4-yl]methyl}sulfanyl)-4-(4-{[(2R)-2,3-dihydroxypropyl]oxy}phenyl)pyridine-3,5-dicarbonitrile, reference compound] |  |  |  |  | < 1.2 | solubility at 24 h [3]: < 0.1 µg/mL |
| C[C@@H](N)C(=O)OC[C@H](COc1ccc(-c2c(C#N)c(N)nc(SCc3coc(-c4ccc(Cl)cc4)n3)c2C#N)cc1)OC(=O)[C@@H](C)N [Example 9, (2S)-3-{4-[2-Amino-6-({[2-(4-chlorophenyl)-1,3-oxazol-4-yl]methyl}sulfanyl)-3,5-dicyanopyridin-4-yl]phenoxy}propane-1,2-diyl(2R,2′R)-bis(2-aminopropanoate)dihydrochloride] |  |  |  |  |  | solubility at 24 h ([2]; aqueous buffer, dilute hydrochloric acid (pH 4)): 535 µg/mL |
| CC(C)[C@H](N)C(=O)OC[C@@H](COc1ccc(-c2c(C#N)c(N)nc(SCc3coc(-c4ccc(Cl)cc4)n3)c2C#N)cc1)OC(=O)[C@@H](N)C(C)C [Example 10, (2R)-3-{4-[2-Amino-6-({[2-(4-chlorophenyl)-1,3-oxazol-4-yl]methyl}sulphanyl)-3,5-dicyanopyridin-4-yl]phenoxy}propane-1,2-diyl(2S,2′S)-bis(2-amino-3-methylbutanoate)-dihydro-chloride] |  |  |  |  | > 500 |  |
| C[C@H](N)C(=O)OC[C@@H](COc1ccc(-c2c(C#N)c(N)nc(SCc3coc(-c4ccc(Cl)cc4)n3)c2C#N)cc1)OC(=O)[C@H](C)N [Example 11, (2R)-3-{4-[2-Amino-6-({[2-(4-chlorophenyl)-1,3-oxazol-4-yl]methyl}sulphanyl)-3,5-dicyanopyridin-4-yl]phenoxy}propane-1,2-diyl(2S,2′S)-bis(2-aminopropanoate)dihydrochloride] | 96 | 96 | 84 | 44 |  |  |

The next lines start with results.

| % test substance after 4 h [F(t = 4 h) × 100/F(t = 0 h)] ([1]; pH 4, 37° C.) [%] | % test substance after 24 h [F(t = 24 h) × 100/F(t = 0 h)] ([1]; pH 4, 37° C.) [%] | % test substance after 4 h [F(t = 4 h) × 100/F(t = 0 h)] ([1]; pH 7.4, 37° C.) [%] | % test substance after 24 h [F(t = 24 h) × 100/F(t = 0 h)] ([1]; pH 7.4, 37° C.) [%] | solubility at 24 h [2, 4] [µg/mL] | Structure (SMILES) | further results |
| --- | --- | --- | --- | --- | --- | --- |
|  |  |  |  | 710 | N#Cc1c(N)nc(SCc2coc(-c3ccc(Cl)cc3)n2)c(C#N)c1-c1ccc(OC[C@@H](COC(=O)[C@@H](N)CCCCN)OC(=O)[C@@H](N)CCCCN)cc1 [Example 13, (2S)-3-{4-[2-Amino-6-({[2-(4-chlorophenyl)-1,3-oxazol-4-yl]methyl}sulphanyl)-3,5-dicyanopyridin-4-yl]phenoxy)propane-1,2-diyl(2S,2′S)-bis(2,6-diaminohexanoate)dihydrochloride] |  |
| 97 | 92 | 93 | 74 | 540 | N#Cc1c(N)nc(SCc2coc(-c3ccc(Cl)cc3)n2)c(C#N)c1-c1ccc(OC[C@@H](COC(=O)CCCN)OC(=O)CCCN)cc1 [Example 14, (2S)-3-{4-[2-Amino-6-({[2-(4-chlorophenyl)-1,3-oxazol-4-yl]methyl}sulphanyl)-3,5-dicyanopyridin-4-yl]phenoxy}propane-1,2-diyl bis(4-aminobutanoate)dihydrochloride] |  |
|  |  |  |  | 830 | N#Cc1c(N)nc(SCc2coc(-c3ccc(Cl)cc3)n2)c(C#N)c1-c1ccc(OC[C@@H](COC(=O)CCCCCN)OC(=O)CCCCCN)cc1 [Example 15, (2S)-3-{4-[2-Amino-6-({[2-(4-chlorophenyl)-1,3-oxazol-4-yl]methyl}sulphanyl)-3,5-dicyanopyridin-4-yl]phenoxy}propane-1,2-diyl bis(6-aminohexanoate) dihydrochloride] |  |
|  |  |  |  | 250 | CC(C)[C@H](N)C(=O)OC[C@H](COc1ccc(-c2c(C#N)c(N)nc(SCc3coc(-c4ccc(Cl)cc4)n3)c2C#N)cc1)OC(=O)[C@@H](N)C(C)C [Example 16, (2S)-3-{4-[2-Amino-6-({[2-(4-chlorophenyl)-1,3-oxazol-4-yl]methyl}sulphanyl)-3,5-dicyanopyridin-4-yl]phenoxy}propane-1,2-diyl(2S,2′S)-bis(2-amino-3-methylbutanoate)bis(trifluoroacetic acid) salt] |  |
|  |  |  |  | 330 | CC(C)C[C@H](N)C(=O)OC[C@H](COc1ccc(-c2c(C#N)c(N)nc(SCc3coc(-c4ccc(Cl)cc4)n3)c2C#N)cc1)OC(=O)[C@@H](N)CC(C)C [Example 17, (2S)-3-{4-[2-Amino-6-({[2-(4-chlorophenyl)-1,3-oxazol-4-yl]methyl}sulphanyl)-3,5-dicyanopyridin-4-yl]phenoxy}propane-1,2-diyl(2S,2′S)-bis(2-amino-4-methylpentanoate)bis(trifluoroacetic acid) salt] |  |
| 100 | 95 | 95 | 72 | 240 | C[C@@H](O)[C@H](N)C(=O)OC[C@H](COc1ccc(-c2c(C#N)c(N)nc(SCc3coc(-c4ccc(Cl)cc4)n3)c2C#N)cc1)OC(=O)[C@@H](N)[C@@H](C)O [Example 18, (2S)-3-{4-[2-Amino-6-({[2-(4-chlorophenyl)-1,3-oxazol-4-yl]methyl}sulfanyl)-3,5-dicyanopyridin-4-yl]phenoxy}propane-1,2-diyl(2S,3R,2′S,3′R)-bis(2-amino-3-hydroxybutanoate)bis(trifluoroacetic acid) salt] |  |
